Assay results published in patent publication US20160095837A1, “MODULATION OF MITOCHONDRIAL CALCIUM UNIPORTER ACTIVITY FOR TREATING AND PREVENTING ARRHYTHMIAS” (priority 2014, published 2016).

How the values were obtained:
[1] = test system: other cellular Ca2+ transport processes involved in cardiac muscle contraction; details: even at micromolar levels; cited from earlier work
[2] = target: mitochondria; details: read-out: Kd, binding to mitochondria; cited from earlier work
[3] = test system: mitochondrial Ca2+ concentration ([Ca2+]mito); test: Mitochondrial Ca2+ measurement with mt-pericam in cultured SAN cells; assay type: cell-based, mouse; details: Ru360 dialysis
Experimental: (§1) SAN cells were placed in Tyrode's solution at 36±0.5° C. and were identified by their characteristic morphology (spindle or spider shape) and spontaneous activity. SAN cells were identified electrophysiologically by spontaneous action potentials with a slow depolarizing phase 4 and the hyperpolarization-activated current (If).^27 Spontaneous action potentials, If and ICa were recorded using the perforated (amphotericin B or β-escin in studies requiring dialysis of Ru360 and/or ATP) patch-clamp technique^28 on single SAN cells at 36±0.5° C. in Tyrode's solution. Intracellular Ca^2+ transients were recorded from single SAN cells using Fura-2 AM excited at 340 nm and 380 nm and emitted and 510 nm. Endogenous NADH from single SAN cells was measured by excitation at 350 nm and recording emitted light at 460 nm.^29 Mitochondrial Ca^2+ was measured at 535 nm from mt-pericam expressing SAN cells exited at 415 nm^20. Mitochondrial Ca^2+ entry was measured in cell membrane permeabilized cardiomyocytes isolated from DN-MCU transgenic, wild type mice and from HEK293 cells using Calcium green-5N^30.
Freshly isolated mouse SAN tissue was cut into small pieces and put into 35 mm tissue culture plates with DMEM. […] Expression of the recombinant ratio-5mt-pericam and DN-MCU in SAN cells was detected by GFP fluorescence. […]

[4] = test system: Ca2+ uptake into mitochondria in intact myocytes; details: incubation with ~10 μM Ru360 for 30 min; cited from earlier work
[5] = test system: CaV1 L-type Ca2+ current (ICa); test: ICa current recording in SAN cells; assay type: cell-based, mouse; details: Ru360 dialysis
Experimental: as §1
Spontaneous action potentials (APs) and If were recorded using the perforated (amphotericin B or β-escin) patch-clamp technique^28 on single SAN cell at 36±0.5° C. in Tyrode's solution (0.5 mM BaCl2 was added to the bath solution when recording If^32). […]

For (μ)[(HCO2)(NH3)4Ru]2OCl3) [Ru360], the “Effect on other cellular Ca2+ transport processes involved in cardiac muscle contraction” value [1] is listed as “does not affect”, the Kd [2] is listed as 0.34 nM and the “ISO-induced increase in [Ca2+]mito” value [3] is listed as “prevented”. For the same substance, the “Block of Ca2+ uptake into mitochondria in intact myocytes” value [4] was “completely blocks” and the “ISO-induced ICa increases” value [5] was “not impaired”.
